ChEMBL document CHEMBL2440080, “Synthesis and biological evaluation of novel acylhydrazone derivatives as potential antitumor agents” (Bioorg Med Chem, 2013)

Assays:
Assay type in all cases: functional
[1] = test system: RPMI-8226; assay: Cytotoxicity against human RPMI8226 cells after 48 hrs by sulforhodamine B assay; conditions: RPMI-8226, 48 h
[2] = test system: CCRF-CEM; assay: Cytotoxicity against human CCRF-CEM cells after 48 hrs by sulforhodamine B assay
[3] = test system: OVCAR-3; assay: Cytotoxicity against human OVCAR3 cells after 48 hrs by sulforhodamine B assay; conditions: OVCAR-3, 48 h
[4] = test system: T47D; assay: Cytotoxicity against human T47D cells after 48 hrs by sulforhodamine B assay
[5] = test system: SNB-75; assay: Cytotoxicity against human SNB75 cells after 48 hrs by sulforhodamine B assay; conditions: SNB-75, 48 h
[6] = test system: KM12; assay: Cytotoxicity against human KM12 cells after 48 hrs by sulforhodamine B assay; conditions: KM12, 48 h
[7] = test system: CAKI-1; assay: Cytotoxicity against human CAKI-1 cells after 48 hrs by sulforhodamine B assay; conditions: CAKI-1, 48 h
[8] = test system: HOP-92; assay: Cytotoxicity against human HOP92 cells after 48 hrs by sulforhodamine B assay; conditions: HOP-92, 48 h
[9] = test system: HL-60(TB); assay: Cytotoxicity against human HL-60(TB) cells after 48 hrs by sulforhodamine B assay; conditions: HL-60, 48 h
[10] = test system: HCT-116; assay: Cytotoxicity against human HCT116 cells after 48 hrs by sulforhodamine B assay; conditions: HCT-116, 48 h
[11] = test system: SF-268; assay: Cytotoxicity against human SF268 cells after 48 hrs by sulforhodamine B assay; conditions: SF-268, 48 h
[12] = test system: SF-295; assay: Cytotoxicity against human SF295 cells after 48 hrs by sulforhodamine B assay; conditions: SF-295, 48 h
[13] = test system: ACHN; assay: Cytotoxicity against human ACHN cells after 48 hrs by sulforhodamine B assay
[14] = test system: RXF 393; assay: Cytotoxicity against human RXF393 cells after 48 hrs by sulforhodamine B assay; conditions: RXF 393, 48 h
[15] = test system: IGROV-1; assay: Cytotoxicity against human IGROV1 cells after 48 hrs by sulforhodamine B assay; conditions: IGROV-1, 48 h
[16] = test system: OVCAR-8; assay: Cytotoxicity against human OVCAR8 cells after 48 hrs by sulforhodamine B assay; conditions: OVCAR-8, 48 h
[17] = test system: M14; assay: Cytotoxicity against human M14 cells after 48 hrs by sulforhodamine B assay; conditions: M14, 48 h
[18] = test system: DU-145; assay: Cytotoxicity against human DU145 cells after 48 hrs by sulforhodamine B assay; conditions: DU-145, 48 h
[19] = test system: OVCAR-4; assay: Cytotoxicity against human OVCAR4 cells after 48 hrs by sulforhodamine B assay; conditions: OVCAR-4, 48 h
[20] = test system: UACC-62; assay: Cytotoxicity against human UACC62 cells after 48 hrs by sulforhodamine B assay; conditions: UACC-62, 48 h
[21] = test system: TK-10; assay: Cytotoxicity against human TK10 cells after 48 hrs by sulforhodamine B assay; conditions: TK-10, 48 h
[22] = test system: PC-3; assay: Cytotoxicity against human PC3 cells after 48 hrs by sulforhodamine B assay; conditions: PC-3, 48 h
[23] = test system: NCI-H322M; assay: Cytotoxicity against human NCI-H322M cells after 48 hrs by sulforhodamine B assay
[24] = test system: NCI/ADR-RES; assay: Cytotoxicity against human NCI/ADR-RES cells after 48 hrs by sulforhodamine B assay
[25] = test system: NCI-H460; assay: Cytotoxicity against human NCI-H460 cells after 48 hrs by sulforhodamine B assay; conditions: NCI-H460, 48 h
[26] = Cytotoxicity against human EKVX cells after 48 hrs by sulforhodamine B assay
[27] = test system: LOX IMVI; assay: Cytotoxicity against human LOXIMVI cells after 48 hrs by sulforhodamine B assay
[28] = test system: BT-549; assay: Cytotoxicity against human BT549 cells after 48 hrs by sulforhodamine B assay; conditions: BT-549, 48 h
[29] = test system: SR; assay: Cytotoxicity against human SR cells after 48 hrs by sulforhodamine B assay
[30] = test system: HCT-15; assay: Cytotoxicity against human HCT15 cells after 48 hrs by sulforhodamine B assay; conditions: HCT-15, 48 h
[31] = test system: U-251; assay: Cytotoxicity against human U251 cells after 48 hrs by sulforhodamine B assay; conditions: U-251, 48 h
[32] = test system: HOP-62; assay: Cytotoxicity against human HOP62 cells after 48 hrs by sulforhodamine B assay; conditions: HOP-62, 48 h
[33] = test system: MOLT-4; assay: Cytotoxicity against human MOLT4 cells after 48 hrs by sulforhodamine B assay; conditions: MOLT-4, 48 h

Row | SMILES | GI50 [1] [nM] | GI50 [2] [nM] | GI50 [3] [nM] | GI50 [4] [nM] | GI50 [5] [nM] | GI50 [6] [nM] | GI50 [7] [nM] | GI50 [8] [nM] | GI50 [9] [nM] | GI50 [10] [nM] | GI50 [11] [nM] | GI50 [12] [nM] | GI50 [13] [nM] | GI50 [14] [nM] | GI50 [15] [nM] | GI50 [16] [nM] | GI50 [17] [nM] | GI50 [18] [nM] | GI50 [19] [nM] | GI50 [20] [nM] | further results
1 | O=C(N/N=C/c1ccc(O)cc1O)c1ccc(Nc2ccnc(C(F)(F)F)c2)cc1 | > 100000 | 31.6 | 25.1 | 79.4 | 3980 | > 100000 | 50.1 | 15800 | 12600 | 39800 | 39.8 | 10 | 31600 | 12600 | 15800 | 3160 | > 100000 | 20000 | 39.8 | 50.1 | GI50 [21]: 50.1 nM; GI50 [22]: 20000 nM; GI50 [23]: 19.9 nM; GI50 [24]: > 100 µM; GI50 [25]: > 100000 nM; GI50 [26]: 6310 nM; GI50 [27]: 2510 nM; GI50 [28]: 10 nM; GI50 [29]: > 100000 nM; GI50 [30]: > 100000 nM; GI50 [31]: 63.1 nM
2 | O=C(N/N=C/c1ccc(O)cc1O)c1cccc(Nc2ccnc(C(F)(F)F)c2)c1 | 3980 | 398 | 316 | 501 | 6310 | 2510 | 3160 | 1580 | 501 | 501 | 631 | 2000 | 2000 | 1260 | 1260 | 631 | 631 | 1580 | 501 | 398 | GI50 [32]: 501 nM; GI50 [33]: 631 nM; GI50 [21]: 2510 nM; GI50 [22]: 1260 nM; GI50 [23]: 316 nM; GI50 [24]: 3.98 µM; GI50 [25]: 3160 nM; GI50 [26]: 1000 nM; GI50 [27]: 501 nM; GI50 [28]: 631 nM; GI50 [29]: 398 nM; GI50 [30]: 3160 nM; GI50 [31]: 794 nM
3 | O=C(Cc1ccc(Nc2ccnc(C(F)(F)F)c2)cc1)N/N=C/c1ccccc1O | 1000 | 1260 | 794 | 3980 | 2000 | 2000 | 1000 | 2510 | 2510 | 2000 | 2510 | 2510 | 1580 | 1580 | 794 | 2510 | 2000 | 5010 | 3160 | 2000 | GI50 [32]: 2510 nM; GI50 [33]: 1000 nM; GI50 [21]: 7940 nM; GI50 [22]: 794 nM; GI50 [23]: 2510 nM; GI50 [24]: 3.16 µM; GI50 [25]: 794 nM; GI50 [26]: 3160 nM; GI50 [27]: 1000 nM; GI50 [28]: 2510 nM; GI50 [29]: 316 nM; GI50 [30]: 631 nM; GI50 [31]: 2000 nM
4 | CCOc1cccc(/C=N/NC(=O)c2ccc(Nc3ccnc(C(F)(F)F)c3)cc2)c1O | 398 | 501 | 316 | 1580 | 631 | 1580 | 631 | 631 | 1260 | 398 | 1260 | 1260 | 1000 | 398 | 501 | 631 | 1260 | 3980 | 794 | 794 | GI50 [32]: 1260 nM; GI50 [33]: 251 nM; GI50 [21]: 2510 nM; GI50 [22]: 398 nM; GI50 [23]: 1260 nM; GI50 [24]: 3.16 µM; GI50 [25]: 501 nM; GI50 [26]: 1000 nM; GI50 [27]: 631 nM; GI50 [28]: 1580 nM; GI50 [29]: 251 nM; GI50 [30]: 631 nM; GI50 [31]: 1580 nM
5 | O=C(N/N=C/c1cc(Cl)ccc1O)c1ccccc1Nc1ccnc(C(F)(F)F)c1 | 158 | 79.4 | 501 | 794 | 316 | 631 | 398 | 501 | 316 | 200 | 251 | 398 | 316 | 398 | 316 | 631 | 316 | 316 | 251 | 398 | GI50 [32]: 251 nM; GI50 [33]: 200 nM; GI50 [21]: 501 nM; GI50 [22]: 631 nM; GI50 [23]: 398 nM; GI50 [24]: 0.398 µM; GI50 [25]: 316 nM; GI50 [26]: 200 nM; GI50 [27]: 251 nM; GI50 [28]: 794 nM; GI50 [29]: 316 nM; GI50 [30]: 158 nM; GI50 [31]: 316 nM
6 | CCOc1cccc(/C=N/NC(=O)c2cccc(Nc3ccnc(C(F)(F)F)c3)c2)c1O | 2000 | 251 | 200 | 631 | 7940 | 1260 | 1000 | 3160 | 251 | 398 | 631 | 2000 | 1000 | 1000 | 794 | 794 | 1260 | 631 | 631 | 631 | GI50 [32]: 794 nM; GI50 [33]: 316 nM; GI50 [21]: 1260 nM; GI50 [22]: 1000 nM; GI50 [23]: 631 nM; GI50 [24]: 3.16 µM; GI50 [25]: 1000 nM; GI50 [26]: 794 nM; GI50 [27]: 631 nM; GI50 [28]: 1580 nM; GI50 [29]: 158 nM; GI50 [30]: 2000 nM; GI50 [31]: 1260 nM
